Laboratory results as given in US20190345202A1, “ANDROGEN RECEPTOR ANTISENSE OLIGONUCLEOTIDES” (OliPass Corporation, priority 2016, published 2019).
[C(1O2)] = PNA monomer with modified cytosine C(1O2), structure; [A(5)] = PNA monomer with modified adenine A(5), structure; {Fethoc} = Fethoc group on PNA N-terminus; {NH2} = C-terminal amide

How the values were obtained:
[1] = system: AR protein; assay: AR IHC of tissues of mice subcutaneously administered; format: in vivo, mouse; conditions: subcutaneous, dose increased from 0.01 to 0.1 pmole/Kg, 2× per week for 4 weeks, male C57BL/6 mice
Description: 12 weeks old male C57BL/6 mice were randomly assigned to 3 groups of negative control (no ASO treatment), 0.01 pmole/Kg “ASO 10” and 0.1 pmole/Kg “ASO 10”. (3 animals per group) Mice subcutaneously received either vehicle or ASO dissolved in vehicle (PBS) 2× per week for 4 weeks according to the dosing group. Three days post the final dosing, the animals were anesthetized with zoletil/rompun and subjected to tissue or organ sampling for AR IHC by paraffin blolck.
The AR protein was probed in series with a primary antibody (Cat. No. sc-816, Santa Cruz) at 1:100 dilution, a secondary anti-rabbit IgG (Cat. No. BA-1100, VECTOR) at 1:200 dilution, and Dylight 594-Streptavidin (Cat. No. SA-5594, VECTOR) at 1:200. Nucleus was stained with DAPI. IHC fluorescence images were captured on a Zeiss slide scanner.

[2] = system: androgen receptor; assay: AR IHC of skin samples after topical administration in mice; format: in vivo, mouse; conditions: topical 1, 5, or 25 fM, skin samples Day 30
Description: [AR IHC of Skin Sample] Following the shaving in Day 21, the mice received a single topical administration of either vehicle or “ASO 1” according to the group. In Day 24, the skin of the area with hair removal was sampled for immunohistochemistry (IHC) analysis against androgen receptor. The skin samples were cryo-sectioned and subjected to immunostaining in series with a primary anti-AR antibody (Cat. No. sc-816, Santa Cruz) at 1:100 dilution, with a secondary anti-IgG (Cat No. BA-1100, Vector) at 1:200 dilution, and then with Dylight 594-steptavidin (Cat No. SA-5594, Vector, Calif., USA) at 1:200 dilution for red fluoresence tagging. The IHC images were captured on an Olympus fluorescence microscope for changes in the AR expression level upon topical treatment with “ASO 1”.
[AR Immunohistochemistry of Skin Samples] After the hair cut in Day 27, The animals topically received further either vehicle or “ASO 10” at 1, 5, or 25 fM in Days 27 and 29. Skin samples of the back were collected in Day 30 for immunohistochemical analysis against androgen receptor. The skin samples were subjected to immunostaining against androgen receptor as described in “Example 7”. IHC images were captured on a Zeiss slide scanner. FIG. 14B is a representative set of AR IHC images. […] It would be difficult to clearly state that the AR expression in hair follicles decreased in the treatment groups due to the marked increases in the number of hair follicles in the treatment groups.

[3] = system: human AR mRNA; assay: qPCR (TaqMan probe) of AR mRNA level in MCF7 cells; format: cell-based; conditions: 1 zM to 1 aM, 24 hours
Description: The qPCR reaction was monitored with a TaqMan probe of [(5′→3′) TTTCTTCAG-ZEN-CTTCCGGGCTC-3IABkFQ (SEQ ID NO: 19)].

[4] = system: full-length AR protein; assay: Western blot of AR protein in MCF7 cells; format: cell-based, human; conditions: 10 zM to 30 aM
Method: 4 culture dishes were used for 4 negative controls. 48 hours later, cells were washed 2 times with cold PBS, and then subjected to lysis with 200 μL 1× cell lysis buffer (Cat. No. 9803, Cell Signaling Tech) supplemented with 1× protease inhibitor (Cat. No. P8340, Sigma). The lysates were collected in 1.5 ml e-tube. 200 μL of each lysate was mixed with 100 μL 3× sample buffer, and boiled for 5 min at 100 ? . 20 μL of each lysate (12 lysates in total). 4 negative controls and 8 ASO treatment samples) was subjected to electrophoretic separation on a 8% SDS-PAGE gel, and transferred onto a 0.2 μm PVDF membrane. The membrane was probed with anti-AR antibody (Cat. No. 5153, Cell Signaling Tech) and anti-β-actin antibody (Cat. No. sc4778, Santa Cruz). FIG. 10A provides the AR Western blot data obtained therefrom. Multiple (negative) control samples were used to overcome technical artifacts of western blot procedures.

[5] = system: human AR pre-mRNA; assay: AR nested PCR for skipping of AR exon 5 in MCF7 cells; format: cell-based; conditions: 3 aM to 3 fM, 3 hours
Method: “ASO 5” was evaluated by AR nested PCR for its ability to induce the skipping of AR “exon 5” in MCF7 cells (Cat. Number: HTB-22, ATCC). The employed procedures are detailed as follows.
[Cell Culture & ASO Treatment] MCF7 cells were grown in EMEM medium supplemented with 10% FBS, 1% streptomycin/penicillin, and 0.01 mg/ml bovine insulin under 5% CO2 atmosphere at 37° C. Cells were sub-cultured in 60 mm culture dish prior to treatment with “ASO 5” at 3 aM to 3 fM.
[RNA Extraction] MCF7 cells were incubated with or without “ASO 5” for 3 hours. Total RNA was extracted from cells in 60 mm culture dish using “Universal RNA Extraction Kit” (Cat. No. 9767, Takara) according to the manufacturer's instructions [cDNA Synthesis by One-step PCR]
[Nested PCR Amplification] Throughout the amplification process, was used a unique amplification technique (touch up as increasing annealing temperature per cycle) that worked efficiently and specifically over a temperature range, rather than at one specific annealing temperature (i.e. conventional PCR method). […]
[Identification of Exon Skipping Products] […] The bands of target size were collected and analyzed by Sanger Sequencing. […]

Row | Substance | AR expression in epidermis distal to the injection site, liver, testis and prostate (IHC) [1] | number of hair follicles vs negative control group (IHC images) [2] | AR expression in the muscle layer underneath the dermis (IHC) ([2]; most notable at 5 fM) | decrease of relative expression level of exons 4-6 (TaqMan) [3] [%] | AR band intensity vs neighboring lysates without ASO treatment [4] | exon skipping (AR mRNA splice variants by nested PCR and Sanger sequencing) [5]
1 | Fethoc-C(1O2)TT-A(5)CC-A(5)GG(6)-CA(5)A-NH2 (antisense CTTACCAGGCAA; N-Fethoc, C-terminal amide, chemistry not fully specified) [ASO 10] | markedly decreased | increased markedly | markedly decreased | 50 to 70 |  | 
2 | Fethoc-C(1O2)TT-A(5)CC-A(5)GG-C(1O2)AA(5)-G-NH2 (antisense CTTACCAGGCAAG; all peptide nucleic acid (PNA), [C(1O2)] at 1, 10, [A(5)] at 4, 7, 12, 5' {Fethoc}, 3' {NH2}; peptide nucleic acid, written N to C terminus) [ASO 5] |  |  |  |  | considerably weaker | induce the skipping of “exon 5”, “exons 4-5”, and “exons 4-6”
